Data taken from patent US12391679B2, “Benzamide-substituted bicyclic imidazo- and pyrazolo-fused -pyridine, -pyrimide, and -pyridazine compounds for treatment of inflammatory diseases” (ONCO3R Therapeutics BV, priority 2019, dated 2025).

Key:
[1] = target: T1, SIK1 (Homo sapiens, UniProt P57059); assay: ADP-Glo kinase assay, SIK1; type: biochemical
T1 construct: purchased Carna Biosciences 02-131
Procedure, shortened: (§1)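 Luminescent ADP-Glo readout of ADP formed. Enzyme-substrate mix with ATP, reaction 120 min at RT, then 40 min ATP depletion and 30 min detection. Controls were 1% DMSO (negative) and 10 μM staurosporine (positive), both final.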

[2] = system: LPS-induced TNFα in monocytes; assay: Monocytes assay: LPS-triggered TNFα (ELISA); type: cell-based, human; settings: Homo sapiens, Monocyte, LPS-triggered TNFα inhibition
Experimental: This assay evaluates illustrative compounds of the invention for their inhibition of LPS-induced TNFα and LPS triggered IL-10 secretion in monocytes.
PBMCs are isolated from human blood samples (buffycoats). The buffy coat is aseptically transferred into a 50 mL Falcon tube, and diluted 1/2 in PBS. Falcon tubes are filled with 20 mL Lymphoprep™, on top of which 25 mL of the buffy coat is carefully added, tubes are centrifuged for 35 min at 400 g in temperature controlled centrifuge, without brake, at 25° C. PBMCs are aspirated from the white interface layer between sample and Lymphoprep™. PBMCs are washed five times in PBS.
PBMCs are centrifuged at 300×g for 10 min and resuspended at a density of 1.0*10^7 cells/80 μL Miltenyi buffer (PBS, pH 7.4, 1% FBS, 2 mM EDTA).
Starting from this point of the protocol all steps are performed on ice. 20 μL of CD14+ micro-beads are added per 1.0*10^7 cells, the tube is mixed and incubated for 15 min in the fridge at 4° C. Cell suspension volume is adjusted to total volume of 100 mL using Miltenyi buffer, mixed gently and subsequently centrifuged for 10 min at 300×g. Supernatant is discarded and cell pellet is resuspended in 12 mL of Miltenyi buffer.
Four LS columns are placed in the MACS Separator (magnet) from Miltenyi Biotec, and are prewet by rinsing with 3 mL of MACS buffer per column. Three mL of cell suspension is added onto the column (max 1*10^8 of labelled cells/column), and columns are subsequently washed 3 times with 3 mL of Miltenyi buffer.
The columns are removed from the magnets, and 5 mL of Miltenyi buffer are added to the column to flush out the CD14+ fraction by pushing the plunger into the column. The flushed fractions are collected in a fresh 50 mL Falcon and volume is adjusted to 30 mL using Miltenyi buffer, cells are centrifuged for 10 min at 300×g. The obtained cell pellet is resuspended in 10 mL RPMI w/o FBS, and cell density is determined using a hematologic analyser (Sysmex XS-500i).
A compound dilution plate is made in 100% DMSO by 3-fold dilution of 10 mM stock solution. An intermediate dilution plate (10× final concentration) is made by diluting the compound dilution plate 50-fold in RPMI medium.
10 μL of the 10× final concentration compound is added to the cells and incubated for 1 h at 37° C. before addition of trigger. No trigger conditions/trigger conditions are spiked with equal final DMSO concentrations of 0.2% DMSO. 10 μL of 10×LPS (final conc. 200 ng/mL) solution are added to all wells except for the ‘no trigger wells’ where 10 μL medium is added. Supernatant is collected after 4 h of LPS triggering.
The plate is then washed once with PBST (PBS+0.05% Tween20) and once with PBS followed by the addition of 100 μL of blocking buffer (1% Bovine Serum Albumin (BSA)-5% Sucrose) and plates are sealed and incubated for at least 4 h at RT. After washing the plate once with PBST and once with PBS, […]. Plates are washed twice with PBST, and once with PBS, after which 35 μL of the detection antibody is added (final concentration 0.25 μg/mL diluted in dilution buffer) and plates are incubated for at least 2 h at RT. Plates are washed twice with PBST, and once with PBS, whereafter 35 μL of Strep-HRP conjugate (0.5 μg/mL final concentration diluted in dilution buffer) is added. Plates are incubated in the dark, at RT for at least 45 min but no longer than 1 h. Plates are washed twice with PBST, and once with PBS. Thereafter, 50 μL of luminol substrate is added to each well (prepared according to manufacturer's instructions), and incubated for 5 min at RT protected from light.
To measure the inhibition of LPS induced TNFα, percentage inhibition (PIN) values are calculated for all concentrations tested, compared to controls.

[3] = target: T2, SIK3 (Homo sapiens, UniProt Q9Y2K2); assay: ADP-Glo kinase assay, SIK3; type: biochemical
T2 construct: purchased SignalChem S12-11G-100
T2 sequence (Q9Y2K2 59-365 limits assumed): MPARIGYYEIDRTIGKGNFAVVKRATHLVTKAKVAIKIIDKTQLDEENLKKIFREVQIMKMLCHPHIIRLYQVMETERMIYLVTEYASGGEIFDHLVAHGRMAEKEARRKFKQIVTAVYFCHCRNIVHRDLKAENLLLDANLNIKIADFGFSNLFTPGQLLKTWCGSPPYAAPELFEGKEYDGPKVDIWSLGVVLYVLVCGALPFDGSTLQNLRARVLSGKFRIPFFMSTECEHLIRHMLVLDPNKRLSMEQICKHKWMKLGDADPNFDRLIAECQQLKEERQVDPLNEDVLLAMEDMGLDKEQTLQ
Procedure, shortened: as §1

[4] = target: T3, SIK2 (Homo sapiens, UniProt Q9H0K1); assay: ADP-Glo kinase assay, SIK2; type: biochemical
T3 construct: purchased ThermoFisher Scientific PV4792
T3 sequence (Q9H0K1 whole entry): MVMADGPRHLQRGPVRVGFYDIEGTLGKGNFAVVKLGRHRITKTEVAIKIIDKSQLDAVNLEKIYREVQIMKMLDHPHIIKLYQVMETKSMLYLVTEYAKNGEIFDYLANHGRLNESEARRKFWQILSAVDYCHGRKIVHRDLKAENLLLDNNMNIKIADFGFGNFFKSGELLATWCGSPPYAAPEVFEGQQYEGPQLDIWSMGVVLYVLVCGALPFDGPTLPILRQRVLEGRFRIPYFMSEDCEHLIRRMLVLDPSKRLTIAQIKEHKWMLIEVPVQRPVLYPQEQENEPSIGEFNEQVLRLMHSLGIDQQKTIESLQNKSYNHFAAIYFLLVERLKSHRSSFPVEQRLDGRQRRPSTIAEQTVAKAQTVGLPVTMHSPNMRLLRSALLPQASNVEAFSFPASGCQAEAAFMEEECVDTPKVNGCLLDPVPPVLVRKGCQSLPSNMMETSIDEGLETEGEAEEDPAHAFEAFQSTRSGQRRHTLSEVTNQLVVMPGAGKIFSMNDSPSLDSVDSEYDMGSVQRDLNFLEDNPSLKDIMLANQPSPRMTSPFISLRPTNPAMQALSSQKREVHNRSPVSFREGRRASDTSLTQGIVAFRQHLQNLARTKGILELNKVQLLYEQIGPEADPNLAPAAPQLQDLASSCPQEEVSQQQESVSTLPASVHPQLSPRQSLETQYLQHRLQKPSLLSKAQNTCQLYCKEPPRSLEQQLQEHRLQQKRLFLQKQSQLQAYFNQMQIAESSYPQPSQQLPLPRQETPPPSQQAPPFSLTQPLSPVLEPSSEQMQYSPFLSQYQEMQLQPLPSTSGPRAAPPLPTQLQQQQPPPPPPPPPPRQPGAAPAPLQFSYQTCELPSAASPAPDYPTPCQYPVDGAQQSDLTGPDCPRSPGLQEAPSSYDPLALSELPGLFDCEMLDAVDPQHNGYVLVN
Procedure, shortened: as §1

T1 sequence (P57059 whole entry): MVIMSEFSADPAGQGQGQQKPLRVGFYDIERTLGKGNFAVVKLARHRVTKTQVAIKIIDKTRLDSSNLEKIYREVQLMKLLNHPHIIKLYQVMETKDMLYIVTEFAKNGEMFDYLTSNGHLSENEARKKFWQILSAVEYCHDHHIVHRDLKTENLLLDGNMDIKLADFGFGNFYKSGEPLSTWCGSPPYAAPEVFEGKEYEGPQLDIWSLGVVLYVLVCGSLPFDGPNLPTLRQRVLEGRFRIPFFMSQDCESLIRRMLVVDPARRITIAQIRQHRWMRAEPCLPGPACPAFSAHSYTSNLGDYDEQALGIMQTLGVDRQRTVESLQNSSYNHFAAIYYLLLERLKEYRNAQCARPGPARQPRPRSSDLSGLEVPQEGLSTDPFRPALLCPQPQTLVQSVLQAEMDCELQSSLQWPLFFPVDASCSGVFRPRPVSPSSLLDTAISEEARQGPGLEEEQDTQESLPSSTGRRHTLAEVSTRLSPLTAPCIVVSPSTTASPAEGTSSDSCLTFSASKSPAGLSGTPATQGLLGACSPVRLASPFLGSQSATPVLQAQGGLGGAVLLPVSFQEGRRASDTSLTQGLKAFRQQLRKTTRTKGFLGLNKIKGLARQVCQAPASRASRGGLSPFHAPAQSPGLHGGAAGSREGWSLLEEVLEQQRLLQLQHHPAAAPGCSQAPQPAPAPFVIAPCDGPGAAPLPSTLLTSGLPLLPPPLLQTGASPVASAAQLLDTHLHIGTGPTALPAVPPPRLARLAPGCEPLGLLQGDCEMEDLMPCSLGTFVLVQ

| Structure (SMILES) | IC50 [1] | EC50 [2] | IC50 [3] | IC50 [4] |
| --- | --- | --- | --- | --- |
| COc1cc(-c2cnc3cc(C(C)(C)C(C)O)ccn23)cc(OC)c1C(=O)NCC(F)(F)F (stereo not drawn) [Cpd 62, 4-[7-(2-hydroxy-1,1-dimethyl-propyl)imidazo[1,2-a]pyridin-3-yl]-2,6-dimethoxy-N-(2,2,2-trifluoroethyl)benzamide] | > 500 nM | 1000 to 5000 nM | 10 to 100 nM | > 500 nM |
| COc1cc(-c2cnc3cc(C4(C#N)CN(C)C4)ccn23)cc(OC(F)F)c1C(=O)NC1CC1 [Cpd 121, 4-[7-(3-cyano-1-methyl-azetidin-3-yl)imidazo[1,2-a]pyridin-3-yl]-N-cyclopropyl-2-(difluoromethoxy)-6-methoxy-benzamide] | > 500 nM | 1000 to 5000 nM | 10 to 100 nM | > 500 nM |
| COc1cc(-c2cnc3cc(C(C)(O)CN4CCOCC4)ccn23)cc(OC(F)F)c1C(=O)NC1CC1 (stereo not drawn) [Cpd 178, N-cyclopropyl-2-(difluoromethoxy)-4-[7-(1-hydroxy-1-methyl-2-morpholino-ethyl)imidazo[1,2-a]pyridin-3-yl]-6-methoxy-benzamide] | > 500 nM | 100 to 1000 nM | 10 to 100 nM | > 500 nM |
| COc1cc(-c2cnc3cc(C(C)(O)CC#N)ccn23)cc(OC(F)F)c1C(=O)NC1CC1 (stereo not drawn) [Cpd 179, 4-[7-(2-cyano-1-hydroxy-1-methyl-ethyl)imidazo[1,2-a]pyridin-3-yl]-N-cyclopropyl-2-(difluoromethoxy)-6-methoxy-benzamide] | 0.01 to 10 nM | 0.1 to 100 nM | 0.01 to 10 nM | 0.01 to 10 nM |
| COc1cc(-c2cnc3cc(C(C)(O)CN4CCCCC4)ccn23)cc(OC(F)F)c1C(=O)NC1CC1 (stereo not drawn) [Cpd 185, N-cyclopropyl-2-(difluoromethoxy)-4-[7-[1-hydroxy-1-methyl-2-(1-piperidyl)ethyl]imidazo[1,2-a]pyridin-3-yl]-6-methoxy-benzamide] | > 500 nM | 100 to 1000 nM | 10 to 100 nM | > 500 nM |
| COc1cc(-c2cnc3cc(C4CCCN4)ccn23)cc(OC(F)F)c1C(=O)NC1CC1 (stereo not drawn) [Cpd 188, N-cyclopropyl-2-(difluoromethoxy)-6-methoxy-4-(7-pyrrolidin-2-ylimidazo[1,2-a]pyridin-3-yl)benzamide] | > 500 nM | 100 to 1000 nM | 10 to 100 nM | 100 to 500 nM |
| COc1cc(-c2cnc3cc(C(C)(O)Cn4cccn4)ccn23)cc(OC(F)F)c1C(=O)NC1CC1 (stereo not drawn) [Cpd 192, N-cyclopropyl-2-(difluoromethoxy)-4-[7-(1-hydroxy-1-methyl-2-pyrazol-1-yl-ethyl)imidazo[1,2-a]pyridin-3-yl]-6-methoxy-benzamide] | > 500 nM | 100 to 1000 nM | 10 to 100 nM | > 500 nM |
| COc1cc(-c2cnc3cc(C(C)(C)C#N)c(OCCO)cn23)cc(OC(F)F)c1C(=O)NC1CC1 [Cpd 221, 4-[7-(1-cyano-1-methyl-ethyl)-6-(2-hydroxyethoxy)imidazo[1,2-a]pyridin-3-yl]-N-cyclopropyl-2-(difluoromethoxy)-6-methoxy-benzamide] | > 500 nM | 100 to 1000 nM | 10 to 100 nM | > 500 nM |
| COc1cc(-c2cnc3cc(C4(O)COC4)ccn23)cc(OC(F)F)c1C(=O)N[C@@H]1C[C@@H]1F [Cpd 223, 2-(difluoromethoxy)-N-[(1R,2S)-2-fluorocyclopropyl]-4-[7-(3-hydroxyoxetan-3-yl)imidazo[1,2-a]pyridin-3-yl]-6-methoxy-benzamide] | > 500 nM | 100 to 1000 nM | 10 to 100 nM | 100 to 500 nM |
| COc1cc(-c2cnn3cc(C4(NCC(F)F)CCC4)ccc23)cc(OC(F)F)c1C(=O)N[C@@H]1C[C@@H]1F [Cpd 271, 4-[6-[1-(2,2-difluoroethylamino)cyclobutyl]pyrazolo[1,5-a]pyridin-3-yl]-2-(difluoromethoxy)-N-[(1R,2S)-2-fluorocyclopropyl]-6-methoxy-benzamide] | > 500 nM |  | 10 to 100 nM | > 500 nM |
| COc1cc(-c2cnn3cc(C4(C(=O)N5CCOCC5)CCC4)ccc23)cc(OC(F)F)c1C(=O)N[C@@H]1C[C@@H]1F [Cpd 274, 2-(difluoromethoxy)-N-[(1R,2S)-2-fluorocyclopropyl]-6-methoxy-4-[6-[1-(morpholine-4-carbonyl)cyclobutyl]pyrazolo[1,5-a]pyridin-3-yl]benzamide] | > 500 nM |  | 100 to 500 nM | > 500 nM |
| CCN(CC)CC(C)(C)c1ccc2c(-c3cc(OC)c(C(=O)N[C@@H]4C[C@@H]4F)c(OC(F)F)c3)cnn2c1 [Cpd 276, 4-[6-[2-(diethylamino)-1,1-dimethyl-ethyl]pyrazolo[1,5-a]pyridin-3-yl]-2-(difluoromethoxy)-N-[(1R,2S)-2-fluorocyclopropyl]-6-methoxy-benzamide] | > 500 nM |  | 10 to 100 nM | > 500 nM |

The next lines start with the values.

| IC50 [1] | EC50 [2] | IC50 [3] | IC50 [4] | Structure (SMILES) |
| --- | --- | --- | --- | --- |
| > 500 nM | 1000 to 5000 nM | 10 to 100 nM | > 500 nM | COc1cc(-c2cnc3cc(C(C)N4CCOCC4)ccn23)cc(OC(F)F)c1C(=O)NC1CC1 (stereo not drawn) [Cpd 139, N-cyclopropyl-2-(difluoromethoxy)-6-methoxy-4-[7-(1-morpholinoethyl)imidazo[1,2-a]pyridin-3-yl]benzamide] |
| > 500 nM | 1000 to 5000 nM | 10 to 100 nM | 100 to 500 nM | COc1cn2c(-c3cc(OC)c(C(=O)NC4CC4)c(OC(F)F)c3)cnc2cc1C1CCOCC1 [Cpd 167, N-cyclopropyl-2-(difluoromethoxy)-6-methoxy-4-(6-methoxy-7-tetrahydropyran-4-yl-imidazo[1,2-a]pyridin-3-yl)benzamide] |
| > 500 nM | 1000 to 5000 nM | 10 to 100 nM | 100 to 500 nM | COc1cc(-c2cnc3cc(C4CN(C(C)=O)C4)c(F)cn23)cc(OC(F)F)c1C(=O)NC1CC1 [Cpd 169, 4-[7-(1-acetylazetidin-3-yl)-6-fluoro-imidazo[1,2-a]pyridin-3-yl]-N-cyclopropyl-2-(difluoromethoxy)-6-methoxy-benzamide] |
| > 500 nM | 100 to 1000 nM | 10 to 100 nM | > 500 nM | COc1cc(-c2cnc3cc(C4(OC)COC4)ccn23)cc(OC(F)F)c1C(=O)NC1CC1 [Cpd 212, N-cyclopropyl-2-(difluoromethoxy)-6-methoxy-4-[7-(3-methoxyoxetan-3-yl)imidazo[1,2-a]pyridin-3-yl]benzamide] |
| > 500 nM | 100 to 1000 nM | 10 to 100 nM | > 500 nM | COc1cc(-c2cnc3cc(C4(O)CCOC4)ccn23)cc(OC(F)F)c1C(=O)NC1CC1 (stereo not drawn) [Cpd 213, N-cyclopropyl-2-(difluoromethoxy)-4-[7-(3-hydroxytetrahydrofuran-3-yl)imidazo[1,2-a]pyridin-3-yl]-6-methoxy-benzamide] |
| > 500 nM | 100 to 1000 nM | 10 to 100 nM | > 500 nM | COc1cc(-c2cnc3cc(C(C)(C)C4CCO4)ccn23)cc(OC(F)F)c1C(=O)NC1CC1 (stereo not drawn) [Cpd 229, N-cyclopropyl-2-(difluoromethoxy)-6-methoxy-4-[7-[1-methyl-1-(oxetan-2-yl)ethyl]imidazo[1,2-a]pyridin-3-yl]benzamide] |
